Experiment [1] deals with T1, mAOX3-FeSII-FeSI-mAOX1.
T1 construct: gene Aox3
Conditions: read-out: mAOX3-FeSII-FeSI-mAOX1; O2 (air-saturated buffer) as electron acceptor, 50 mM Tris-HCl pH 8.0, 1 mM EDTA, 37 °C; kcat corrected for Mo content.

Experiment [2] relates to T2, mAOX3-FeSI-mAOX1.
T2 construct: gene Aox3
The conditions noted are these: read-out: mAOX3-FeSI-mAOX1; O2 (air-saturated buffer) as electron acceptor, 50 mM Tris-HCl pH 8.0, 1 mM EDTA, 37 °C; kcat corrected for Mo content.

Experiment [3] has as its system T3, mAOX3-FeSII-mAOX1.
T3 construct: gene Aox3
The conditions noted are these: read-out: mAOX3-FeSII-mAOX1; O2 (air-saturated buffer) as electron acceptor, 50 mM Tris-HCl pH 8.0, 1 mM EDTA, 37 °C; kcat corrected for Mo content.

In experiment [4] the test system is T4, mAOX3-FeSI-mAOX1.
T4 construct: gene Aox3; mAOX3 with A87-Q214 replaced by T83-Q213 of mAOX1 (FeSI domain); N-terminal His6-tag; E. coli; dimer
The experiment can be described thus: steady-state kinetics, DCPIP reduction at […] nm. Conditions: 100 µM DCPIP as electron acceptor, 50 mM Tris-HCl pH 8.0, 1 mM EDTA, 37 °C; kcat corrected for Mo content. It counts as biochemical, Mus musculus.

Experiment [5] deals with T5, mAOX3-FeSII-FeSI-mAOX1.
T5 construct: gene Aox3; mAOX3 with M1-Q214 replaced by M1-Q213 of mAOX1 (both FeS domains); N-terminal His6-tag; E. coli; dimer
Description: steady-state kinetics, DCPIP reduction at […] nm. It counts as biochemical, Mus musculus. Conditions: 100 µM DCPIP as electron acceptor, 50 mM Tris-HCl pH 8.0, 1 mM EDTA, 37 °C; kcat corrected for Mo content.

Experiment [6] has as its system T6, mAOX3-FeSII-mAOX1.
T6 construct: gene Aox3; mAOX3 with M1-P80 replaced by M1-P76 of mAOX1 (FeSII domain); N-terminal His6-tag; E. coli; dimer
Description: steady-state kinetics, DCPIP reduction at […] nm. It counts as biochemical, Mus musculus. Conditions: 100 µM DCPIP as electron acceptor, 50 mM Tris-HCl pH 8.0, 1 mM EDTA, 37 °C, kcat corrected for Mo content.

Drawing on publication PMC3864932, “Identification of Crucial Amino Acids in Mouse Aldehyde Oxidase 3 That Determine Substrate Specificity” (PLoS ONE, 2013), this text covers Km for three molecules.

Like-named read-outs stand apart in the source and are kept apart here.

As for `c1ccc2c(c1)cnc1ccccc12` [phenanthridine], the Km stood at 28 ± 2 µM in the experiment with mAOX3-FeSII-FeSI-mAOX1 [1], 35 ± 2 µM in the experiment with mAOX3-FeSI-mAOX1 [2] and 30 ± 5 µM in the experiment with mAOX3-FeSII-mAOX1 [3].
Regarding `c1ccc2cnncc2c1` [phthalazine], the Km in the experiment on mAOX3-FeSI-mAOX1 [4] turned out to be 1.2 ± 0.1 µM; in the experiment on mAOX3-FeSII-FeSI-mAOX1 [5] it was 1 ± 0.1 µM; with mAOX3-FeSII-mAOX1 [6] (read-out: mAOX3-WT ^4) it was 1.4 ± 0.2 µM.
Take `O=Cc1ccccc1` [benzaldehyde]: the values for the Km in the experiment on mAOX3-FeSI-mAOX1 [4], in the experiment on mAOX3-FeSII-FeSI-mAOX1 [5] and with mAOX3-FeSII-mAOX1 [6] (read-out: mAOX3-FeSII-mAOX1) were 3.6 ± 0.3 µM, 2.2 ± 0.1 µM and 1.6 ± 0.1 µM, respectively.
